One experiment deals with Prothrombin (Homo sapiens, UniProt P00734). Put plainly: Inhibitory activity against thrombin was determined.
The target of another experiment is Coagulation factor X (Homo sapiens, UniProt P00742). Put plainly: Inhibitory activity against serine protease factor Xa (fXa) was determined.

The text below walks through data of ChEMBL document CHEMBL1133787, “Solid-phase optimisation of achiral amidinobenzyl indoles as potent and selective factor Xa inhibitors” (Bioorg Med Chem Lett, 2001).

Sequence of Coagulation factor X (P00742 41-179 limits assumed): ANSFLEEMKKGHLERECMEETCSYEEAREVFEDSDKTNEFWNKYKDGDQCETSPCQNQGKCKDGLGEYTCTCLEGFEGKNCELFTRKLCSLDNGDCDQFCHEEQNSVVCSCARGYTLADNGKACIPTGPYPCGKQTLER
Sequence of Coagulation factor X (P00742 235-488 limits assumed): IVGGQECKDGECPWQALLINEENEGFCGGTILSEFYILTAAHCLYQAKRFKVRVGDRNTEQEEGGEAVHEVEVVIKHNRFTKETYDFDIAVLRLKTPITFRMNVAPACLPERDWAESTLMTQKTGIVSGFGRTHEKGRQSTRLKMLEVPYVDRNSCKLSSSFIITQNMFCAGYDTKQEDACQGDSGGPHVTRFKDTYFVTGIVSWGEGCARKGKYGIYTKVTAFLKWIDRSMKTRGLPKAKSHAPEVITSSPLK

As for `Cc1cc(C)cc(CNC(=O)c2cc3c(O)cccc3n2Cc2cccc(C(=N)N)c2)c1`, the values for the Ki on Prothrombin and at Coagulation factor X were 620 nM and 11 nM, respectively.
Turning to `N=C(N)c1cccc(Cn2c(C(=O)NCc3cc(Cl)cc(Cl)c3)cc3c(O)cccc32)c1`, the inhibition constant Ki on Prothrombin amounted to 771 nM; on Coagulation factor X, 5 nM.
In the case of `N=C(N)c1cccc(CNC(=O)c2cc3c(O)cccc3n2Cc2cccc(C(=N)N)c2)c1`, the inhibition constant Ki at Prothrombin was 3600 nM.
`C[N+](C)(C)c1ccc(CNC(=O)c2cc3cc(O)ccc3n2Cc2cccc(C(=N)N)c2)cc1`: the values for the Ki on Prothrombin and on Coagulation factor X were 12000 nM and 28 nM, respectively.
For `N=C(N)c1cccc(Cn2c(C(=O)NCCc3cccc(Cl)c3)cc3c(O)cccc32)c1`, the affinity on Coagulation factor X, expressed as Ki, was 707 nM.
The same measure, in the same setting: for `N=C(N)c1cccc(Cn2c(C(=O)Nc3cc(Cl)cc(Cl)c3)cc3c(O)cccc32)c1` the value was 798 nM; for `N=C(N)c1cccc(Cn2c(C(=O)NCc3cccc(Cl)c3)cc3c(O)cccc32)c1`, 262 nM; for `N=C(N)c1cccc(CNC(=O)c2cc3cc(N)ccc3n2Cc2cccc(C(=N)N)c2)c1`, 84 nM.
